Experimental data reported in patent US20050106305A1, “Beverage compositions comprising monatin and methods of making same” (Cargill, Inc., priority 2003, published 2005).
Like-named read-outs stand apart in the source and are kept apart here. Where a SMILES comes first, the peptide text is derived from it.

Experiments:
[1] = Taste profiling of lemon/lime carbonates and colas; format: in vivo; conditions: HFCS 10%, aspartame 500 ppm, sucralose 200 ppm, blends 30.8 ppm/5.0%; for Average Score: score 1, poor-5, good, sucrose 10%
Description: Cola and lemon/lime beverages were prepared using the following formulations and sweetened with sucrose, HFCS (55% fructose), aspartame, sucralose, monatin (racemic mix described in Example 14), monatin/sucrose, or monatin/HFCS. One part of syrup was added to 5.5 parts carbonated water and evaluated.
Assessments were carried out ‘double blind’ by a panel of trained tasters. The sucrose-sweetened product was identified as the control and all other products randomly coded. Panelists were asked to assess the randomly coded sample relative to the control for the following attributes:
Panelists also were asked assign a score (1; poor-5; good) for the quality of the sweetener system. A summary of the comments generated together with the average score awarded is presented in Tables 12 and 13 for lemon/lime carbonates and colas, respectively. […] Blends of monatin/carbohydrate rated higher. In the cola, monatin was similar to aspartame.

[2] = Sensory evaluation of soft drinks (lemon/lime, orangeade, cola); format: in vivo; conditions: Lemon/lime soft drink; aspartame 500 ppm, sucralose 200 ppm, R,R monatin 42 ppm
Description: Beverages (cola, lemon-lime and orange) were formulated and sweetened with aspartame, sucralose or R,R monatin. Qualitative evaluation was carried out.
The term “throw” refers to dilution in water. For example, a throw of “1+4” means 1 part concentrate formulation to 4 parts water. Thus, if a concentrate formulation includes 0.021% wt/vol (i.e., 210 ppm) of R,R monatin, for example, a throw of 1+4 makes a diluted beverage containing 42 ppm (210 ppm/5) R,R monatin.
Final ready-to-drink beverages (after throw) contained sweetener concentrations as follows:
Evaluation of these soft drinks was carried out by a panel (n=6) of assessors who evaluated each set of drinks on separate tasting occasions.

[3] = Sensory stability of monatin and aspartame at pH 2.5, 3.0, 4.0 at 40° C.; format: physicochemical; conditions: for Rate constant (k) of sweetness loss / half-life: pseudo-first order assumed; for SEV / Retention of Sweetness: stored 40° C., monatin ~55 ppm, aspartame 400 ppm; for half-life: phosphate/citrate buffer, read-out: Half-life (t½) of sweetness loss (converted)
Description: The sensory stability of monatin solutions prepared at pH 2.5, 3.0 and 4.0 and stored at 40° C. was monitored for 100 days. Loss of sweetness from these solutions was compared with the losses of sweetness from aspartame solutions prepared and stored under identical conditions.
The sensory stability of monatin (8% SEV, ˜55 ppm, synthetic blend containing approximately 96% of the 2R,4R/2S, 4S enantiometric pair and 4% of the 2R,4S/2S,4R enantiometric pair) in phosphate/citrate buffers having a pH of 2.5, 3.0, and 4.0 was examined after storage at 40° C. The stability of monatin was compared to that of aspartame (400 ppm) in the same buffers. Three sucrose reference solutions were prepared in the same phosphate/citrate buffers as the monatin and aspartame solutions. All prepared solutions were stored in the dark.
Buffer compositions: pH 2.5 Phosphoric acid (75% solution) 0.127% (w/v) Tri-sodium citrate monohydrate 0.005% (w/v) • pH 3.0 Phosphoric acid (75% solution) 0.092% (w/v) Tri-sodium citrate monohydrate 0.031% (w/v) • pH 4.0 Phosphoric acid (75% solution) 0.071% (w/v) Tri-sodium citrate monohydrate 0.047% (w/v)
The sweetness of each sweetener relative to sucrose was assessed in duplicate by a panel (n=8) of trained sensory evaluators experienced in the sweetness estimation procedure. All samples (in the same buffers) were served in duplicate at a temperature of 22° C.±1° C. Monatin (test) solutions, coded with 3 digit random number codes were presented individually to panelists, in random order. Sucrose reference standards, ranging from 4.0-10.0% (w/v) sucrose, increasing in steps of 0.5% (w/v) sucrose were also provided. Panelists were asked to estimate sweetness by comparing the sweetness of the test solution to the sucrose standards. This was carried out by taking 3 sips of the test solution, followed by a sip of water, followed by 3 sips of sucrose standard followed by a sip of water, etc. Panelists were encouraged to estimate the sweetness to one decimal place, e.g., 6.8, 8.5. A five minute rest period was imposed between evaluating the test solutions. Panelists were also asked to rinse well and eat a cracker to reduce any potential carry over effects.
If a pseudo-first order breakdown reaction is assumed, a plot of logn percentage retention versus time (logn%RTN v. t) allows estimation of the half-life (t½) and rate constant (k) of sweetness loss under any given set of conditions. In so doing, the kinetics of monatin and aspartame sweetness loss may be summarized as follows in Table 25.

[4] = cola, sucrose 10% (control), monatin 80 ppm
[5] = lemon/lime carbonate, sucrose 10% (control), monatin 67 ppm

In the case of `COC(=O)[C@H](Cc1ccccc1)NC(=O)[C@@H](N)CC(=O)O` [Aspartame, aspartame] (H-Asp-Phe-OMe), the Aftertaste [1, 4] is reported as “Lingering sweetness”, the “Flavor Profile” value [1, 4] is reported as “Sweet flavor, flatter” and the Mouthfeel [1, 4] is reported as “Thinner mouthfeel”. For the same compound, the “Sweetness Profile” value [1, 4] was “Delayed sweetness”, the “Flavor Profile” value [1, 5] was “Slightly lacking upfront” and the “Sweetness Profile” value [1, 5] was “Sweetness onset quite”. For the same compound, the “Average Score” value ([1]; cola, monatin 80 ppm) was 3.3, the “Average Score” value ([1]; lemon/lime carbonate, monatin 67 ppm) was 4.0 and the “Comments (sensory evaluation)” value [2] was “Balanced sweetness/acidity profile. Very”. For the same compound, the “Sweetness Retained” value ([3]; after 100 days storage at pH 2.5 at 40° C.) was 11%, the “Sweetness Retained” value ([3]; after 100 days storage at pH 3.0 at 40° C.) was 31% and the “Sweetness Retained” value ([3]; after 100 days storage at pH 4.0 at 40° C.) was 58%. For the same compound, the “Rate constant (k) of sweetness loss” value ([3]; pH 2.5, 40° C.) was 0.013 day⁻¹, the SEV ([3]; pH 2.5 buffer, day 0) was 7.34 % sucrose and the “Retention of Sweetness” value ([3]; pH 2.5 buffer, day 1) was 94.0%. For the same compound, the SEV ([3]; pH 2.5 buffer, day 1) was 6.90 % sucrose, the “Retention of Sweetness” value ([3]; pH 2.5 buffer, day 2) was 92.6% and the SEV ([3]; pH 2.5 buffer, day 2) was 6.80 % sucrose. For the same compound, the “Retention of Sweetness” value ([3]; pH 2.5 buffer, day 3) was 89.9%, the SEV ([3]; pH 2.5 buffer, day 3) was 6.60 % sucrose and the “Retention of Sweetness” value ([3]; pH 2.5 buffer, day 4) was 85.7%. The SEV ([3]; pH 2.5 buffer, day 4) was 6.29 % sucrose, the “Retention of Sweetness” value ([3]; pH 2.5 buffer, day 7) was 81.9% and the SEV ([3]; pH 2.5 buffer, day 7) was 6.01 % sucrose. For the same compound, the “Retention of Sweetness” value ([3]; pH 2.5 buffer, day 8) was 81.5%, the SEV ([3]; pH 2.5 buffer, day 8) was 5.98 % sucrose and the “Retention of Sweetness” value ([3]; pH 2.5 buffer, day 9) was 81.3%. For the same compound, the SEV ([3]; pH 2.5 buffer, day 9) was 5.97 % sucrose, the “Retention of Sweetness” value ([3]; pH 2.5 buffer, day 11) was 79.8% and the SEV ([3]; pH 2.5 buffer, day 11) was 5.86 % sucrose. The “Retention of Sweetness” value ([3]; pH 2.5 buffer, day 50) was 57.1%, the SEV ([3]; pH 2.5 buffer, day 50) was 4.19 % sucrose and the “Retention of Sweetness” value ([3]; pH 2.5 buffer, day 100) was 10.9%. For the same compound, the SEV ([3]; pH 2.5 buffer, day 100) was 0.80 % sucrose, the “Rate constant (k) of sweetness loss” value ([3]; pH 3.0, 40° C.) was 0.009 day⁻¹ and the SEV ([3]; pH 3.0 buffer, day 0) was 7.15 % sucrose. The “Retention of Sweetness” value ([3]; pH 3.0 buffer, day 1) was 96.5%, the SEV ([3]; pH 3.0 buffer, day 1) was 6.90 % sucrose and the “Retention of Sweetness” value ([3]; pH 3.0 buffer, day 2) was 96.1%. The SEV ([3]; pH 3.0 buffer, day 2) was 6.87 % sucrose, the “Retention of Sweetness” value ([3]; pH 3.0 buffer, day 3) was 92.3% and the SEV ([3]; pH 3.0 buffer, day 3) was 6.60 % sucrose. The “Retention of Sweetness” value ([3]; pH 3.0 buffer, day 4) was 89.9%, the SEV ([3]; pH 3.0 buffer, day 4) was 6.43 % sucrose and the “Retention of Sweetness” value ([3]; pH 3.0 buffer, day 7) was 86.3%. For the same compound, the SEV ([3]; pH 3.0 buffer, day 7) was 6.17 % sucrose, the “Retention of Sweetness” value ([3]; pH 3.0 buffer, day 8) was 82.9% and the SEV ([3]; pH 3.0 buffer, day 8) was 5.93 % sucrose. The “Retention of Sweetness” value ([3]; pH 3.0 buffer, day 9) was 83.1%, the SEV ([3]; pH 3.0 buffer, day 9) was 5.94 % sucrose and the “Retention of Sweetness” value ([3]; pH 3.0 buffer, day 11) was 81.5%. The SEV ([3]; pH 3.0 buffer, day 11) was 5.83 % sucrose, the “Retention of Sweetness” value ([3]; pH 3.0 buffer, day 50) was 65.9% and the SEV ([3]; pH 3.0 buffer, day 50) was 4.71 % sucrose. The “Retention of Sweetness” value ([3]; pH 3.0 buffer, day 100) was 30.8%, the SEV ([3]; pH 3.0 buffer, day 100) was 2.20 % sucrose and the “Rate constant (k) of sweetness loss” value ([3]; pH 4.0, 40° C.) was 0.005 day⁻¹. For the same compound, the SEV ([3]; pH 4.0 buffer, day 0) was 7.10 % sucrose, the “Retention of Sweetness” value ([3]; pH 4.0 buffer, day 3) was 95.1% and the SEV ([3]; pH 4.0 buffer, day 3) was 6.75 % sucrose. The “Retention of Sweetness” value ([3]; pH 4.0 buffer, day 8) was 87.8%, the SEV ([3]; pH 4.0 buffer, day 8) was 6.23 % sucrose and the “Retention of Sweetness” value ([3]; pH 4.0 buffer, day 11) was 84.8%. For the same compound, the SEV ([3]; pH 4.0 buffer, day 11) was 6.02 % sucrose, the “Retention of Sweetness” value ([3]; pH 4.0 buffer, day 17) was 81.0% and the SEV ([3]; pH 4.0 buffer, day 17) was 5.75 % sucrose. The “Retention of Sweetness” value ([3]; pH 4.0 buffer, day 24) was 82.4%, the SEV ([3]; pH 4.0 buffer, day 24) was 5.85 % sucrose and the “Retention of Sweetness” value ([3]; pH 4.0 buffer, day 50) was 74.5%. The SEV ([3]; pH 4.0 buffer, day 50) was 5.29 % sucrose, the “Retention of Sweetness” value ([3]; pH 4.0 buffer, day 100) was 57.7% and the SEV ([3]; pH 4.0 buffer, day 100) was 4.10 % sucrose. The half-life ([3]; pH 2.5, 40° C.) was 55 days, the half-life ([3]; pH 3.0, 40° C.) was 75 days and the half-life ([3]; pH 4.0, 40° C.) was 140 days.
